From patent publication US20190076406A1, “METHODS AND COMPOSITIONS FOR TREATING CONDITIONS ASSOCIATED WITH ANGIOGENESIS USING A VASCULAR ADHESION PROTEIN-1 (VAP-1) INHIBITOR” (MASSACHUSETTS EYE & EAR INFIRMARY, priority 2007, published 2019)

How the values were obtained:
[1] = tested on: laser-induced CNV in Brown-Norway rats; assay: Laser-induced CNV, lesion size in choroidal flatmounts; assay type: in vivo, rat; conditions: 0.3 mg/kg BW daily i.p., mean±SEM
Description: (§1) Brown-Norway rats were anesthetized with 0.2-0.3 ml of a 50:50 mixture of 100 mg/ml Ketamine and 20 mg/ml Xylazine. Pupils were dilated with 5.0% Phenylephrine and 0.8% Tropicamide. CNV was induced with a 532 nm laser (Oculight GLx, Iridex, Mountain View, Calif.). Six laser spots (150 mW, 100 μm, 100 msec) were placed in each eye using a slit-lamp delivery system and a cover glass as a contact lens. Production of a bubble at the time of laser confirmed the rupture of the Bruch's membrane.
(§2) To block VAP-1, a specific VAP-1 inhibitor, Compound II described above, was used (R-tech Ueno, Ltd., Tokyo, Japan). After laser injury, the inhibitor (0.3 mg/kg BW) was administered to the animals by daily i.p. injections. As a control, some animals received the same regimen for the vehicle solution alone.
One week or two weeks after laser injury and treatment with VAP-1 inhibitor or vehicle, the size of CNV lesions was quantified using choroidal flat mounts. Briefly, rats were anesthetized and perfused through the left ventricle with 20 ml PBS followed by 20 ml of 5 mg/ml fluorescein labeled dextran (FITC-dextran; MW=2×106, SIGMA) in 1% gelatin. The eyes were enucleated and fixed in 4% paraformaldehyde for 3 hours. The anterior segment and retina were removed from the eyecup. […] The average size of the CNV lesions was then determined and used for the evaluation.

MCP-1 = assay: ELISA of MCP-1 in RPE-choroid complex after laser injury; assay type: in vivo, rat; conditions: 3 days after laser injury; 0.3 mg/kg daily i.p.; mean±SEM
Description: as §1
To block VAP-1, a specific VAP-1 inhibitor, Compound II described above, was used (R-tech Ueno, Ltd., Tokyo, Japan). […]
The RPE-choroid complex was carefully isolated from eyes 3 days after photocoagulation and placed in 300 μl of lysis buffer supplemented with protease inhibitors and sonicated. The lysate was centrifuged at 15,000 rpm for 15 minutes at 4° C. and the levels of TNF-α, monocyte chemotactic protein (MCP)-1, and intercellular adhesion molecule (ICAM)-1 were determined with rat TNF-α (BD bioscience), MCP-1 (BD bioscience) and ICAM-1 (R&D Systems, Minneapolis, Minn.) enzyme-linked immunosorbent assay (ELISA) kits according to the manufacturers' protocols. Total protein concentration was determined using a Bio-Rad Protein Assay Kit (Bio-Rad Laboratories Hercules, Calif.) and dilutions of bovine serum albumin (Bio-Rad Laboratories) as standards.

[2] = molecular target: T1, monoamine oxidase (MAO)-A (Homo sapiens, UniProt P21397); assay: IC50 against MAO-A; assay type: biochemical
T1 sequence (P21397 1-527): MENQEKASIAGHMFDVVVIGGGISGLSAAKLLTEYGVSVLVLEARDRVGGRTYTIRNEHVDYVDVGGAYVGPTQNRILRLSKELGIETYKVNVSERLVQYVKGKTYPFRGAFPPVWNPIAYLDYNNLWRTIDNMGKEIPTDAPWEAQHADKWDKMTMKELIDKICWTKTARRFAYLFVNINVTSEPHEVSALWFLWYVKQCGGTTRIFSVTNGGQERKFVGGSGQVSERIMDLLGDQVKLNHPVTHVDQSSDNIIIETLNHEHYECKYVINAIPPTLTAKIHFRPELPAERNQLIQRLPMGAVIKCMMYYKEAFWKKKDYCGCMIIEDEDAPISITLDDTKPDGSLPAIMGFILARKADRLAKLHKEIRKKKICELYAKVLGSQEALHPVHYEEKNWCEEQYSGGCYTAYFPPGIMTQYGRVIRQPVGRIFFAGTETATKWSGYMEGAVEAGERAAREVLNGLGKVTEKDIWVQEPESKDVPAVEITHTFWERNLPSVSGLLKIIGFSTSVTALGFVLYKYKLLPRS

[3] = tested on: laser-induced CNV in Brown-Norway rats; assay: Macrophage (ED-1 positive cell) infiltration in CNV lesions; assay type: in vivo, rat; conditions: 3 days after laser injury; vs vehicle; n=4, p<0.05
Description: as §1, §2
At 1, 3, and 7 days after laser injury and treatment with either VAP-1 inhibitor or vehicle solution, animals were perfused with 200 ml of PBS/kg BW under deep anesthesia. […] The photographs of CNV lesions were taken, and the numbers of ED-1-positive cells were counted. To obtain a quantitative index of macrophage numbers in CNV lesions, an optical density plot of the selected area was generated by a histogram graphing tool in the Photoshop image analysis software (version 6.0; Adobe Systems, Mountain View, Calif.), as described in the literature (for example, Sakurai et al. (2003) IOVS 44: 3578-85). […]

Structure (SMILES): CC(=O)Nc1nc(CCc2ccc(NC(=N)NN)cc2)c(Cc2ccc(S(C)(=O)=O)cc2)s1 [Compound II]
- CNV size ([1]; 7 days after laser injury, n=7): 14,536±2175 μm^2
- CNV size ([1]; fourteen days after laser injury, n=10 eyes, not significant vs vehicle (p=0.5)): 23,992±1437 μm^2
- MCP-1 protein level in RPE-choroid complex (MCP-1): 662 ± 52 pg/mg
- IC50 [2]: > 10 µM
- reduction of number of accumulated macrophages (ED-1 positive cells) in CNV lesions [3]: 41%
